Data as given in publication doi:10.1101/2024.08.13.607848, “Bibacillin 1: A two-component lantibiotic from Bacillus thuringiensis” (bioRxiv, 2024).

Legend:
rabbit erythrocytes = type: cell-based; conditions: total peptide concentration 2 µM; 1 h at 37 °C; hemoglobin release, absorbance at 415 nm; mixture 1:1
Description: Solution phase hemolysis assays were conducted as described previously.[35]
Fig. S2. […] A) Hemoglobin release […]
erythrocytes were treated with 0.03% v/v triton X-100. Negative control contained only buffer. A total peptide concentration of 2 µM was used in each case. B) Extent of hemolysis after treating freshly washed rabbit erythrocytes with 1:1 of CylLS”:CylLL” at 37 ̊C for 1 h. Data was fit to a […]
(1 picture or pasted object on this page, not shown here)

[1] = In vitro pore formation assay, pyranine-encapsulated liposomes; conditions: total peptide concentration 5 μM; DOPC liposomes containing or lacking 0.1 mol% lipid II; mixture 1:1
Description: To investigate the lipid II-dependence of the pore formation activity of bibacillin 1, pyranine-encapsulated liposomes were prepared containing or lacking lipid II and pore formation was monitored via pH-dependent pyranine fluorescence.[70]
This assay was conducted as described elsewhere.[70]

[2] = SDS-PAGE analysis of oligomerization; type: physicochemical; conditions: in the presence of SDS
Text: Using agar plates seeded with E. faecalis pXL110 and the colorimetric LacZ substrate X-gal, LacZ expression was visualized. Consistent with previous reports,[43] […] Comparing the structures of CylLS” and Bib1β (Fig. 1A and 2B), we speculated that the presence of Ser16 in Bib1β rather than the hydrophobic residues present in CylLS” in this region might interfere with CylR1 binding possibly due to hydrophobic mismatching. […] To determine whether bibacillin 1 could quorum sense through an aggregation mechanism, the aggregation propensity of bibacillin 1 was analyzed using SDS-PAGE and dynamic light scattering (DLS). […] Since SDS can influence aggregation, the aggregation of bibacillin 1 was further investigated under SDS-free conditions using DLS (Fig. 6B). Bib1α exists in solution as aggregates that are 159 nm in diameter on average (PDI = 0.224) and Bib1β forms aggregates that are 291 nm in diameter on average (PDI = 0.384). […] Confirmation of this hypothesis will require in vitro studies with Bib1R1/R2.

[3] = test system: Micrococcus luteus ATCC 4698; test: Agar diffusion assay using bacteria; type: cell-based
Description: Fig. 4. […] Cytolysin was used as a positive control.
Overnight cultures of bacteria were prepared according to Table S1. The OD600 of each culture was determined and adjusted to a value of 1 using the appropriate growth media. Molten growth media containing 0.7% agar was cooled to 50 °C and inoculated with 50 μL of adjusted overnight culture for every 5 mL of molten growth media. The inoculated molten growth media was immediately poured onto a pre-warmed agar (2%) plate prepared using the same media. The plate was allowed to set for 30 min at room temperature before adding 3 μL of peptide stock diluted in PBS to 100 μM. The deposited peptide solutions were allowed to stand on the agar plate for 30 min before incubation for 16–36 h at the optimum growth temperature until the desired cell density was achieved.

SMILES | Hemolysis in solution phase assay (rabbit erythrocytes) | Pore formation activity in liposomes, pyranine fluorescence [1] | Oligomeric state by SDS-PAGE [2] | Growth inhibition in agar diffusion assay [3]
C=C(NC(=O)[C@H](C)NC(=O)[C@@H]1CS[C@H](C)[C@H](N)C(=O)NC(=C)C(=O)N2CCC[C@H]2C(=O)N[C@@H](C)C(=O)N1)C(=O)N[C@@H](C)C(=O)N[C@@H](CCSC)C(=O)N[C@@H](CC(C)C)C(=O)N[C@@H](Cc1ccc(O)cc1)C(=O)N[C@@H](CC(C)C)C(=O)N[C@@H](CCC(N)=O)C(=O)NCC(=O)N[C@H](C(=O)NC(=CC)C(=O)N[C@H](C(=O)NC(=C)C(=O)N[C@@H](CC(C)C)C(=O)NCC(=O)N[C@@H](CC(C)C)C(=O)N[C@@H]1CSC[C@@H](C(=O)O)NC(=O)[C@H](Cc2c[nH]cn2)NC(=O)[C@H](CCSC)NC(=O)[C@H](CCCNC(=N)N)NC1=O)C(C)C)C(C)C [Bib1α] | did not induce hemolysis | pore formation activity that was somewhat enhanced by the addition of lipid II | oligomeric in the presence of SDS | weak individual activity
CC=C1NC(=O)[C@@H](N)[C@@H](C)SC[C@@H](C(=O)N[C@@H](C)C(=O)N[C@H](C(=O)NCC(=O)NCC(=O)NCC(=O)N[C@@H](CC(C)C)C(=O)N[C@@H](C)C(=O)N[C@@H](CC(C)C)C(=O)NCC(=O)N[C@@H](Cc2ccccc2)C(=O)N[C@@H](CO)C(=O)N[C@H](C(=O)N[C@@H]2CSC[C@@H](C(=O)O)NC(=O)[C@H](Cc3ccc(O)cc3)NC(=O)[C@H]([C@@H](C)CC)NC(=O)[C@H](CCCCN)NC2=O)[C@@H](C)CC)[C@@H](C)CC)NC(=O)[C@H](C(C)C)NC(=O)[C@@H]2CCCN2C1=O [Bib1β] | did not induce hemolysis |  | oligomeric in the presence of SDS | weak individual activity
